# Tests used:
# soybean = assay: Test B pre/postemergence soybean; assay type: in vivo, Glycine max
# Procedure, shortened: (§1)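 Test chemicals in a non-phytotoxic solvent mixture with surfactant were sprayed preemergence onto planted seeds and postemergence onto plants 2 to 18 cm tall (1- to 4-leaf stage). After twelve to sixteen days in a greenhouse, injury was visually rated against untreated controls from 0 (no effect) to 10 (complete control).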
# rape = assay: Test B pre/postemergence rape; assay type: in vivo, Brassica napus
# Procedure, shortened: as §1
# giant foxtail = assay: Test B pre/postemergence giant foxtail; assay type: in vivo, Setaria faberii
# Procedure, shortened: as §1
# wheat = assay: Test B pre/postemergence wheat; assay type: in vivo, Triticum aestivum
# Procedure, shortened: as §1
# surinam grass = assay: Test B pre/postemergence surinam grass; assay type: in vivo, Brachiaria decumbens
# Procedure, shortened: as §1
# bedstraw = assay: Test B pre/postemergence bedstraw; assay type: in vivo, Galium aparine
# Procedure, shortened: as §1
# corn = assay: Test B pre/postemergence corn; assay type: in vivo, Zea mays
# Procedure, shortened: as §1
# crabgrass = assay: Test B pre/postemergence crabgrass; assay type: in vivo, Digitaria sanguinalis
# Procedure, shortened: as §1
# purple nutsedge = assay: Test B pre/postemergence purple nutsedge; assay type: in vivo, Cyperus rotundus
# Procedure, shortened: as §1
# pigweed = assay: Test B pre/postemergence pigweed; assay type: in vivo, Amaranthus retroflexus
# Procedure, shortened: as §1
# morningglory = assay: Test B pre/postemergence morningglory; assay type: in vivo, Ipomoea hederacea
# Procedure, shortened: as §1
# blackgrass = assay: Test B pre/postemergence blackgrass; assay type: in vivo, Alopecurus myosuroides
# Procedure, shortened: as §1
# velvetleaf = assay: Test B pre/postemergence velvetleaf; assay type: in vivo, Abutilon theophrasti
# Procedure, shortened: as §1
# sugar beet = assay: Test B pre/postemergence sugar beet; assay type: in vivo, Beta vulgaris
# Procedure, shortened: as §1
# wild oat = assay: Test B pre/postemergence wild oat; assay type: in vivo, Avena fatua
# Procedure, shortened: as §1
# cocklebur = assay: Test B pre/postemergence cocklebur; assay type: in vivo, Xanthium strumarium
# Procedure, shortened: as §1
# [1] = Postemergence, Rate 62 g/ha, scale 0 to 10, 0 is no effect, 10 is complete control
# [2] = Postemergence, Rate 500 g/ha, scale 0 (no effect) to 10 (complete control)
# [3] = Preemergence, Rate 250 g/ha, scale 0 (no effect) to 10 (complete control)
# [4] = Rate 62 g/ha, Preemergence, scale 0 to 10
# [5] = Rate 125 g/ha, Preemergence, scale 0 to 10 (0 no effect, 10 complete control)
# [6] = Rate 250 g/ha, Postemergence, scale 0 to 10, 0 is no effect, 10 is complete control
# [7] = Rate 500 g/ha, Preemergence, scale 0 to 10 (0 no effect, 10 complete control)
# [8] = Postemergence, Rate 125 g/ha, scale of 0 to 10 where 0 is no effect and 10 is complete control
smiles,measurement,setting,value
C#CC(C)n1c(=O)on(C(=O)N(c2ccc(F)cc2)C(C)C)c1=O (stereo not shown) [Compound 763],"Plant response rating, Soybean",soybean; [1],2
same,Soybean plant response rating,soybean; [2],5
same,Soybean plant response rating,soybean; [3],0
same,Soybean plant response rating,soybean; [4],0
same,Soybean plant response rating,soybean; [5],0
same,Soybean plant response rating,soybean; [6],3
same,Soybean plant response rating,soybean; [7],0
same,"Plant response rating, Rape",rape; [1],0
same,Rape plant response rating,rape; [8],0
same,Rape plant response rating,rape; [2],3
same,Rape plant response rating,rape; [3],6
same,Rape plant response rating,rape; [4],0
same,Rape plant response rating,rape; [5],5
same,Rape plant response rating,rape; [6],0
same,Rape plant response rating,rape; [7],9
same,"Plant response rating, Giant foxtail",giant foxtail; [1],6
same,Giant foxtail plant response rating,giant foxtail; [8],8
same,Giant foxtail plant response rating,giant foxtail; [2],9
same,Giant foxtail plant response rating,giant foxtail; [3],9
same,Giant foxtail plant response rating,giant foxtail; [4],9
same,Giant foxtail plant response rating,giant foxtail; [5],9
same,Giant foxtail plant response rating,giant foxtail; [6],9
same,Giant foxtail plant response rating,giant foxtail; [7],9
same,"Plant response rating, Wheat",wheat; [1],0
same,Wheat plant response rating,wheat; [2],3
same,Wheat plant response rating,wheat; [3],5
same,Wheat plant response rating,wheat; [4],0
same,Wheat plant response rating,wheat; [5],0
same,Wheat plant response rating,wheat; [6],4
same,Wheat plant response rating,wheat; [7],7
same,"Plant response rating, B. signalgrass",surinam grass; [1],0
same,B. signalgrass plant response rating,surinam grass; [8],3
same,B. signalgrass plant response rating,"surinam grass; Preemergence, Rate 62 g/ha, scale of 0 to 10 where 0 is no effect and 10 is complete control",0
same,B. signalgrass plant response rating,surinam grass; [3],9
same,B. signalgrass plant response rating,surinam grass; [5],9
same,B. signalgrass plant response rating,surinam grass; [6],5
same,B. signalgrass plant response rating,"surinam grass; Rate 500 g/ha, Postemergence, scale 0 to 10, 0 is no effect, 10 is complete control",5
same,B. signalgrass plant response rating,surinam grass; [7],8
same,Bedstraw plant response rating,bedstraw; [8],0
same,Bedstraw plant response rating,bedstraw; [2],4
same,Bedstraw plant response rating,bedstraw; [3],7
same,Bedstraw plant response rating,bedstraw; [4],0
same,Bedstraw plant response rating,bedstraw; [5],6
same,Bedstraw plant response rating,bedstraw; [7],8
same,"Plant response rating, Corn",corn; [1],0
same,Corn plant response rating,corn; [8],0
same,Corn plant response rating,corn; [2],2
same,Corn plant response rating,corn; [3],0
same,Corn plant response rating,corn; [4],0
same,Corn plant response rating,corn; [5],0
same,Corn plant response rating,corn; [6],0
same,Corn plant response rating,corn; [7],0
same,"Plant response rating, Crabgrass",crabgrass; [1],2
same,Crabgrass plant response rating,crabgrass; [8],5
same,Crabgrass plant response rating,crabgrass; [2],9
same,Crabgrass plant response rating,crabgrass; [3],10
same,Crabgrass plant response rating,crabgrass; [4],9
same,Crabgrass plant response rating,crabgrass; [5],9
same,Crabgrass plant response rating,crabgrass; [6],8
same,Crabgrass plant response rating,crabgrass; [7],9
same,"Plant response rating, Nutsedge",purple nutsedge; [1],0
same,Nutsedge plant response rating,purple nutsedge; [8],0
same,Nutsedge plant response rating,purple nutsedge; [2],6
same,Nutsedge plant response rating,purple nutsedge; [4],0
same,Nutsedge plant response rating,purple nutsedge; [6],3
same,Nutsedge plant response rating,purple nutsedge; [7],5
same,"Plant response rating, Redroot pigweed",pigweed; [1],0
same,Redroot pigweed plant response rating,pigweed; [8],0
same,Redroot pigweed plant response rating,pigweed; [2],8
same,Redroot pigweed plant response rating,pigweed; [3],10
same,Redroot pigweed plant response rating,pigweed; [4],8
same,Redroot pigweed plant response rating,pigweed; [5],9
same,Redroot pigweed plant response rating,pigweed; [6],3
same,Redroot pigweed plant response rating,pigweed; [7],10
same,"Plant response rating, Morningglory",morningglory; [1],2
same,Morningglory plant response rating,morningglory; [8],7
same,Morningglory plant response rating,morningglory; [2],7
same,Morningglory plant response rating,morningglory; [3],0
same,Morningglory plant response rating,morningglory; [4],0
same,Morningglory plant response rating,morningglory; [5],0
same,Morningglory plant response rating,morningglory; [6],7
same,Morningglory plant response rating,morningglory; [7],5
same,"Plant response rating, Blackgrass",blackgrass; [1],5
same,Blackgrass plant response rating,blackgrass; [8],5
same,Blackgrass plant response rating,blackgrass; [2],5
same,Blackgrass plant response rating,blackgrass; [3],9
same,Blackgrass plant response rating,blackgrass; [4],8
same,Blackgrass plant response rating,blackgrass; [5],9
same,Blackgrass plant response rating,blackgrass; [6],5
same,Blackgrass plant response rating,blackgrass; [7],10
same,"Plant response rating, Velvetleaf",velvetleaf; [1],0
same,Velvetleaf plant response rating,velvetleaf; [2],2
same,Velvetleaf plant response rating,velvetleaf; [3],1
same,Velvetleaf plant response rating,velvetleaf; [4],0
same,Velvetleaf plant response rating,velvetleaf; [5],1
same,Velvetleaf plant response rating,velvetleaf; [6],0
same,Velvetleaf plant response rating,velvetleaf; [7],3
same,"Plant response rating, Sugarbeets",sugar beet; [1],0
same,Sugarbeets plant response rating,sugar beet; [2],4
same,Sugarbeets plant response rating,sugar beet; [3],3
same,Sugarbeets plant response rating,sugar beet; [4],0
same,Sugarbeets plant response rating,sugar beet; [5],0
same,Sugarbeets plant response rating,sugar beet; [6],2
same,Sugarbeets plant response rating,sugar beet; [7],6
same,"Plant response rating, Wild oats",wild oat; [1],0
same,Wild oats plant response rating,wild oat; [2],1
same,Wild oats plant response rating,wild oat; [3],9
same,Wild oats plant response rating,wild oat; [4],2
same,Wild oats plant response rating,wild oat; [5],8
same,Wild oats plant response rating,wild oat; [7],9
same,"Plant response rating, Cocklebur",cocklebur; [1],0
same,Cocklebur plant response rating,cocklebur; [8],0
same,Cocklebur plant response rating,cocklebur; [2],3
same,Cocklebur plant response rating,cocklebur; [3],0
same,Cocklebur plant response rating,cocklebur; [4],0
same,Cocklebur plant response rating,cocklebur; [5],0
same,Cocklebur plant response rating,cocklebur; [6],1
same,Cocklebur plant response rating,cocklebur; [7],0

# From patent US6737383B1, “Herbicidal oxadiazolidines” (priority 1999, dated 2004)
